US4350695A, “Antihistaminic and bronchospasmolytic triazoloquinazolinones” (Roussel Uclaf, priority 1980, dated 1982)
Converted amounts (≈) assume the structure as drawn. Structures can show the parent of a compound that is named as a salt.

Tests used:
[1] = system: histamine-induced bronchoconstriction; experiment: Effects on histamine-induced bronchoconstriction in anaesthetised guinea pigs; assay type: in vivo, guinea pig; conditions: for ED50: Cavia porcellus, iv, male anaesthetised guinea pigs, administered via cannulated left jugular vein immediately before histamine, read-out: ED50 (effective dose required to reduce the histamine-induced constriction in lung air volume by 50%); for antagonising the bronchoconstricting activity of histamine: anaesthetised guinea pigs, result in words
Procedure: A. Effects on histamine-induced bronchoconstriction in anaesthetised guinea pigs
Male guinea pigs weighing 300-400 grams, after overnight starving, were anaesthetised with intraperitoneal administration of 0.7 ml/100 g of urethane. The preparation was as described by Konsett et al [Arch. exp. Path. Pharmakol. […] (1940), p. 71] with a ventilatory pump stroke volume varying between 4 to 6 ml of air (adjusted for each animal) at a stroke rate of 80 per minute to maintain a lung inflation pressure of 7.5 cm of H2 O. Blood pressure was measured via a cannula in the right carotid artery connected to a Statham blood pressure transducer and a Devices M2 recorder. The test compounds were administered via the cannulated left jugular vein and washed in with 0.1 ml of 0.9% w/w sodium chloride in distilled water. The test product was administered immediately before the histamine which was used as the agonist.
Respiratory changes were recorded via a differential transducer connected to an SE 905 transducer/converter which in turn was connected to a Devices M2 recorder. The results given in Table I show the effective dose of each of the test compounds required to reduce the histamine-induced constriction in lung air volume by 50%.

[2] = system: isolated guinea pig tracheas; experiment: Effect on isolated guinea pig tracheas (histamine-induced contraction); assay type: cell-based; conditions: for EC50: Cavia porcellus, spirally cut trachea, Krebs Henseleit solution, 37° C., histamine as agonist, read-out: EC50 (amount required to reduce the histamine-induced contraction of the guinea pig trachea by 50%)
Procedure: B Effect on isolated guinea pig tracheas
Guinea pigs were killed by a blow on the back of the neck and the tracheas were excised, cut spirally and suspended in Krebs Henseleit solution at 37° C. and aerated with 95% O2 +5% CO2. Histamine was used as the agonist.

EC50 [2] [µg/mL]	SMILES	ED50 [1] [mg/kg]	further results
0.25 (≈ 0.591 µM)	O=c1c2ccccc2nc2n(CCCN3CCN(c4cccc(Cl)c4)CC3)cnn12 [Example 6]	0.03	–
15 (≈ 48.2 µM)	O=c1c2ccccc2nc2n(CCCN3CCCCC3)cnn12 [Example 7]	0.3	–
0.1	O=c1c2ccccc2nc2n(CCCCN3CCN(c4cccc(Cl)c4)CC3)cnn12 [Example 1 & 2, 1-{4-[4-(m-chlorophenyl)-piperazin-1-yl]-butyl}-triazolo-[1,2,4][5,1-b]-quinazolin-5(1H)-one dihydrochloride]	0.02	antagonising the bronchoconstricting activity of histamine [1]: very effective
–	O=c1c2ccccc2nc2n(CCCCN3CCN(c4cccc(Cl)c4)CC3)cnn12 [1 and 2]	–	antagonistic effect, persistence ([2]; isolated guinea pig trachea, after compound washed out, result in words): very prolonged; time for which antagonistic effect could be demonstrated after the compound had been washed out ([2]; isolated guinea pig trachea, after wash-out): up to 30 minutes; antagonist of histamine induced contractions ([2]; isolated guinea pig trachea, result in words): potent antagonist
–	CCOC(=O)N1CCN(CCCCn2cnn3c(=O)c4ccccc4nc23)CC1 [Example 15, 1-{4-[4-(ethoxycarbonyl)-piperazin-1-yl]-butyl}-[1,2,4]-triazolo-[5,1-b]-quinazolin-5-(1H)-one]	0.05	–
10.2 (≈ 25 µM)	O=c1c2ccccc2nc2n(CCCCN3CCN(C4CCCCC4)CC3)cnn12 [Example 5]	0.9	–
–	CCOC(=O)N1CCN(CCCn2cnn3c(=O)c4cc(C)ccc4nc23)CC1 [Example 34, 1-{3-[4-(ethoxycarbonyl)-piperazin-1-yl]-propyl}-7-methyl-[1,2,4]-triazolo-[5,1-b]-quinazolin-5-(1H)-one]	0.01	–
–	O=c1c2cc([N+](=O)[O-])ccc2nc2n(CCCCN3CCN(c4cccc(Cl)c4)CC3)cnn12 [Example 10]	0.1	–
–	O=c1c2ccccc2nc2n(CCCN3CCC(O)(c4ccccc4)CC3)cnn12 [Example 8]	2	–
36 (≈ 111 µM)	O=c1c2ccccc2nc2n(CCCCN3CCCCC3)cnn12 [Example 24]	0.7	–
–	O=c1c2ccccc2nc2n(CCCCCN3CCN(c4cccc(Cl)c4)CC3)cnn12 [Example 11]	0.05	–
–	CCOC(=O)N1CCN(CCCCn2cnn3c(=O)c4cc(C)ccc4nc23)CC1 [Example 3, 1-{4-[4-(ethoxycarbonyl)-piperazin-1-yl]-butyl}-7-methyl[1,2,4] triazolo [5,1-b]-quinazolin-5(1H)-one dihydrochloride]	0.008	antagonising the bronchoconstricting activity of histamine [1]: very effective
16 (≈ 47.1 µM)	O=c1c2ccccc2nc2n(CCCCCN3CCCCC3)cnn12 [Example 12]	1	–

SMILES	EC50 [2] [µg/mL]	ED50 [1] [mg/kg]	further results
O=c1c2ccccc2nc2n(CCCCN3CCC(O)(c4ccccc4)CC3)cnn12 [Example 4]	34 (≈ 81.4 µM)	0.3	–
